Assay results: ChEMBL document CHEMBL1817638, “Ligand polarizability contributes to tau fibril binding affinity” (Bioorg Med Chem, 2011)
Calls of active or inactive are those of the source. The rule behind the calls is not given here.

How the values were obtained:
[1] = Displacement of Thioflavin S from synthetic Tau 2N4R aggregate by fluorescence assay at 10 uM probe concentration
[2] = Displacement of Thioflavin T from synthetic Tau 2N4R aggregate by fluorescence assay at 1 uM probe concentration
[3] = Displacement of Thioflavin S from heparin-induced synthetic Tau 2N4R aggregate by fluorescence assay
[4] = Displacement of Thioflavin S from Octadecyl sulfate-induced synthetic Tau 2N4R aggregate by fluorescence assay
[5] = Displacement of Thioflavin S from arachidonic acid-induced synthetic Tau 2N4R aggregate by fluorescence assay
[6] = target: Microtubule-associated protein tau (Homo sapiens) (UniProt P10636); experiment: Displacement of Thioflavin S from recombinant human PHF-tau expressed in Escherichia coli by fluorescence assay
[7] = Displacement of Thioflavin S from synthetic Tau 2N4R aggregate by fluorescence assay
[8] = target: Microtubule-associated protein tau (Homo sapiens) (UniProt P10636); experiment: Displacement of Thioflavin T from Octadecyl sulfate-induced synthetic Tau 0N4R aggregate at 17 pm to 10 uM by fluorescence assay at 0.1 uM probe concentration
[9] = target: Microtubule-associated protein tau (Homo sapiens) (UniProt P10636); experiment: Displacement of Thioflavin T from Octadecyl sulfate-induced synthetic Tau 0N4R aggregate at 17 pm to 10 uM by fluorescence assay at increasing probe concentration

Chain of Microtubule-associated protein tau (Homo sapiens) (P10636 whole entry): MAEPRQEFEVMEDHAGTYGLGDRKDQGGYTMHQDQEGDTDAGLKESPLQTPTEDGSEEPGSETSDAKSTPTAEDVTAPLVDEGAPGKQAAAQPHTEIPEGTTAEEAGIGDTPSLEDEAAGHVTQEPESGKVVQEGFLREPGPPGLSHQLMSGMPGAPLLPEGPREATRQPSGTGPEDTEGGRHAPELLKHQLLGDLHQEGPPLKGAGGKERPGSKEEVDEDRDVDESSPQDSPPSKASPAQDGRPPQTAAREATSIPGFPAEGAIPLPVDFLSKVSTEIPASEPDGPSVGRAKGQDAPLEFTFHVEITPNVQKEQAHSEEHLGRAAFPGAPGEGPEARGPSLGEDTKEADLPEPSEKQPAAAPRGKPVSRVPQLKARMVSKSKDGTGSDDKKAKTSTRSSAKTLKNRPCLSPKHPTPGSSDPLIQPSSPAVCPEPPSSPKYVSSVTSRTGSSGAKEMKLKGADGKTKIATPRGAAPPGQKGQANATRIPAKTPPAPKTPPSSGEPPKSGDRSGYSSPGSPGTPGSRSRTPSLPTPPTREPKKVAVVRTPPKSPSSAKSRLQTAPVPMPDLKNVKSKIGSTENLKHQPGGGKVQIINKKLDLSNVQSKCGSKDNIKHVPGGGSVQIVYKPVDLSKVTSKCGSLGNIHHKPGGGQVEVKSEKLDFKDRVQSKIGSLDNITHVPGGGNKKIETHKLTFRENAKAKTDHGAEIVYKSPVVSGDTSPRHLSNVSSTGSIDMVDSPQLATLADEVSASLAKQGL

Compound | Activity [1] | Activity [2] | Activity [3] | Activity [4] | Activity [5] | other results
CNc1ccc2nc3ccc(N(C)C)cc3[s+]c2c1 | inactive | Active |  |  |  | 
CN(C)c1ccc2nc3ccc(N)cc3[s+]c2c1 | inactive | Active |  |  |  | 
N=C1C=CC(=C(c2ccc(N)cc2)c2ccc(N)cc2)C=C1 | Active | Active |  |  |  | 
CN(C)c1ccc(C(=C2C=CC(=[N+](C)C)C=C2)c2ccc(N(C)C)cc2)cc1 | Active | Active |  |  |  | 
Cc1cc2nc3ccc(N(C)C)cc3[s+]c2cc1N | inactive | Active |  |  |  | 
C/N=c1\ccc2nc3ccc(N)cc3sc-2c1 | inactive | Active | Active | Active | Active | 
CN(C)c1ccc2nc3ccc(=[N+](C)C)cc-3sc2c1 | inactive | Active | Active | Active | Active | 
CN(C)c1ccc(/C=C2\C(=O)Nc3ccc(I)cc32)cc1 |  |  | Active | Active | Active | Activity [6]: Active; Activity [7]: Active
CN(C)c1ccc(/C=C2/C(=O)Nc3ccccc32)cc1 |  |  |  |  |  | Activity [8]: Active; Activity [9]: Active
CN(C)c1ccc(C(=C2C=CC(=[N+](C)C)C=C2)c2ccccc2)cc1 | Active | Active |  |  |  | 
COc1ccc2nc(/N=N/c3ccc(N(C)C)cc3)sc2c1 |  |  | Active | Active | Active | 
O=C(O)c1cc(/N=N/c2ccc(-c3ccc(/N=N/c4ccc(O)c(C(=O)O)c4)cc3)cc2)ccc1O |  |  | Active | Active | Active | 
CN(C)c1ccc(-c2nc3ccccc3s2)cc1 |  |  |  |  |  | Activity [8]: Active; Activity [9]: inactive
O=C1C=CC(=C(c2ccc(O)cc2)c2ccc(O)cc2)C=C1 | Active | Active |  |  |  | 
Nc1ccc2nc3ccc(N)cc3[s+]c2c1 | inactive | Active |  |  |  | 
